Experimental data published in patent US20030176456A1, “Methods for reducing alcohol cravings in chronic alcoholics” (priority 2001, published 2003).

Tests used:
[1] = tested on: GABAA α4β3γ2 receptors; test: Xenopus oocyte expression assay, modulation of GABA current; type: cell-based, rat
[2] = tested on: mice; settings: Cox et al., 1998; cited from earlier work
[3] = tested on: mice; settings: doses as high as 60 mg/kg (Griebel et al., 1999); cited from earlier work
[4] = tested on: high-alcohol drinking (HAD-1) rats; test: Operant self-administration, EtOH (and alternate-day sucrose); type: in vivo, rat
Procedure: Operant, Self-administration Apparatus, Training, and Drug Treatment Procedures Behavioral Testing Apparatus. Behavioral testing was conducted in 15 standard operant chambers (Coulbourn Instruments, Allentown, Pa.) equipped with two removable levers and two dipper fluid delivery systems enclosed in sound-attenuated cubicles as previously described (June et al., 1998b; 1998e). All dipper presentations provided a 1.5-sec access to a 0.1-ml dipper, followed by a 3-sec time out period. Above each lever, three stimulus lights (red, green and yellow) were present, and a stimulus delivery/reinforcer was indicated by illumination of the middle (green) stimulus light. Responses and reinforcements were recorded and controlled by a Dell computer using the 4.0 Coulbourn L2T2 operant software package.
HAD-1 Rats. To assess the capacity of βCCt to modulate EtOH responding in the VP, rats were trained to lever press for alcohol only (see below). However, an alternate-day access paradigm was employed to investigate the capacity of systemic injections of βCCt to modify EtOH and sucrose-maintained responding. […] In the VP study rats were initially trained to orally self-administer EtOH and water in daily 60 min sessions on a concurrent FRI schedule in a two-lever choice situation. After a period of stabilization on the FRI schedule, the response requirement was increased to a concurrent FR4 schedule and the water reinforcer was gradually eliminated from the protocol and replaced with EtOH. Thus, the VP HAD-1 rats responded concurrently for EtOH solutions on both levers. The VP HAD rats were then stabilized on this regimen for 3 weeks prior to any microinfusions. Responding was considered stable when responses were within ±20% of the average responses for five consecutive days.
Rats in, the systemic study were trained in a similar manner as the VP animals, except that after a 2 week stabilization period on the concurrently presented EtOH solutions, a series of preliminary studies were conducted to determine the sucrose concentration that produced response rates and profiles similar to that of EtOH during an alternate-day presentation schedule. Following this determination, rats were then stabilized on a regimen of 10% (v/v) EtOH on day 1, and 1% (w/v) sucrose on day 2. This alternate day paradigm continued until a two weeks. After this final stabilization period, the drug treatment phase began. Again, responding was considered stable when responses were within ±20% of the average responses for five consecutive days. The position of the levers and associated dippers for each reinforcer was alternated daily to control for the establishment of lever preference under all concurrent schedules when two different reinforcers were present.
βCCt was administered 15 min before the operant session to allow for optimal absorption and CNS distribution. βCCt was tested at doses of 1-40 mg/kg. The duration of the operant sessions was 60 min, however, subjects were tested at 24 and 48 hours post-drug administration to determine if any residual drug effects remained. A minimum of 72 and maximum of 96 hours was allocated between drug treatments to permit animals to return to baseline levels. This period prevented confounding of drug treatments due to residual effects. […] All systemic drug treatments were given in a randomized design.
The microinfusions were delivered immediately before the operant session with a Harvard infusion pump, during which time animals were able to move about freely in their home cages (for details see June et al., 2001). The injection cannula extended 1 mm beyond the tip of the guide cannulae. βCCt was dissolved in artificial cerebrospinal fluid (aCSF) (composition in mM: NaCl, 120; KCl, 4.8; KH2PO4, 1.2; MgSO4, 1.2; NaHCO3, 25; CaCl2, 2.5; d-glucose, 10). […]

[5] = biological target: T1, α1β3γ2 GABAA receptor (Homo sapiens, UniProt P14867+P18507); settings: recombinant receptors (Cox et al., 1995); cited from earlier work
T1 construct: expressed in transfected cells
T1 sequence (P14867 28-456): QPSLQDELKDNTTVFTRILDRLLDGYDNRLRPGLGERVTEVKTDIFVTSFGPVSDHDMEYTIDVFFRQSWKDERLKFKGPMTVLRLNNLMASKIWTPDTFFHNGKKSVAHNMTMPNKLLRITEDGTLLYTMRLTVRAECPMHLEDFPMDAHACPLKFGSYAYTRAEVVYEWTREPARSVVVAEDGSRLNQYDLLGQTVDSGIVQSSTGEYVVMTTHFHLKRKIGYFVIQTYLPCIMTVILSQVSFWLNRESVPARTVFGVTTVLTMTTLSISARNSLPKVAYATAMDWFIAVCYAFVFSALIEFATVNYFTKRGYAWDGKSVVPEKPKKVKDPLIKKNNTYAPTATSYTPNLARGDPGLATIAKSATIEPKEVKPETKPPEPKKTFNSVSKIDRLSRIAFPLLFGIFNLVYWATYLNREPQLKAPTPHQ
T1 sequence (P28472 26-473 partner): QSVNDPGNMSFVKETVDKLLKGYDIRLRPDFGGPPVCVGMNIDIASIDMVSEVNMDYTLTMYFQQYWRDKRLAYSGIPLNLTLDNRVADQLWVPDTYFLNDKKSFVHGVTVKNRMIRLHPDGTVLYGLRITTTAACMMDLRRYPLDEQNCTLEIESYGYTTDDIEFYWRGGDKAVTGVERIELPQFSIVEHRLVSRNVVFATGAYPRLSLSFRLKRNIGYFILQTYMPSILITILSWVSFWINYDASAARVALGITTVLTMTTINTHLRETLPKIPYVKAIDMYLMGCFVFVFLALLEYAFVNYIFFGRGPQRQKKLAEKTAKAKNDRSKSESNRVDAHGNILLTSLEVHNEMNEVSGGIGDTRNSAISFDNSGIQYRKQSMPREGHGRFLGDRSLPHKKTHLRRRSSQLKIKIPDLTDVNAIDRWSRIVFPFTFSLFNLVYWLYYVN
T1 sequence (P18507 40-475): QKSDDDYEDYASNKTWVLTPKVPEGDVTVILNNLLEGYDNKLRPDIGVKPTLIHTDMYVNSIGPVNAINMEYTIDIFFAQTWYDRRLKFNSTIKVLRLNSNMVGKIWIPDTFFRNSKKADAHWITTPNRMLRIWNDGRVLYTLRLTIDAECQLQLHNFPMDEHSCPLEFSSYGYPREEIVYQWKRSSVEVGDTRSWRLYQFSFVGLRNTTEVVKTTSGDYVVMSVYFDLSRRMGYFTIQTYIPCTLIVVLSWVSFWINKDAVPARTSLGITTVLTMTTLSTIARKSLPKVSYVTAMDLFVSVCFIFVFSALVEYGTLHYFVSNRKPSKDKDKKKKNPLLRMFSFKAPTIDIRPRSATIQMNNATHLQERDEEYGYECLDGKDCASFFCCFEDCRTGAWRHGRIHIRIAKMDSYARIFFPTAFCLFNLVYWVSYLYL

Structure (SMILES) | % of GABA response, α4 [1] [%] | response in pentylenetetrazole seizure model [2] | intrinsic activity in the open field [3] | dose required to reduce sucrose reinforcer compared to alcohol ([4]; i.p.) | sucrose-maintained responding ([4]; i.p. 10 mg/kg) | EtOH-maintained responding ([4]; i.p. 1-10 mg/kg, alternate-day access) | reduction of EtOH responding 24 hr post-drug ([4]; unilateral VP infusion 2.5-7.5 μg, 24 hr post-drug administration) | EtOH-maintained responding ([4]; unilateral infusion 0.5-7.5 μg into VP) | alcohol-maintained responding ([4]; unilateral infusion into CPu/NACC) | selectivity for A1 over the A5 subtype [5] [fold] | selectivity for GABAA1 over the A2 and A3 receptors [5] [fold]
CCCOc1cc2c(cn1)[nH]c1ccccc12.Cl [3-PBC, 3-Propoxy-β-carboline hydrochloride] | 129±3 | “neutral” antagonist-like response |  |  |  |  |  |  |  |  | 
CC(C)(C)OC(=O)c1cc2c(cn1)[nH]c1ccccc12 [βCCt, β-carboline-3-carboxylate t-butyl ester] |  |  | failed to produce intrinsic activity | four-fold higher dose | marked suppression | dose-dependently suppressed | 54-63 % of control levels | dose-dependently reduced | completely ineffective | > 110 | > 10
